Test results as given in US20250177566A1, “USE OF CHEMICAL EPIGENETIC MODIFIERS TO MODULATE GENE EXPRESSION” (The University of North Carolina at Chapel Hill, priority 2022, published 2025).

Target: T1, BRD4 (Homo sapiens, UniProt O60885+P62942)
T1 construct: achieved via the accumulation of endogenous epigenetic machinery at the designed gRNA targeted gene locus; endogenous in cells; host or cells: HCT116 cells stably expressing dCas9 and MS2-FKBP*x2, transfected with CXCR4 or NT gRNA
Experiment: BRD4 ChIP-seq, HCT116
Type: cell-based
Source text: Given that SLF*-CEMa facilitates gene activation via recruitment of BET proteins including BRD4, BRD4 enrichment at a specific targeted gene locus was investigated to further validate the mechanism of CEM207. Based on the alamarBlue cell viability assay performed with HEK293T and HCT116 cells, CEM207 can have different toxicity effects on different cell lines after 4 days of exposure. Specifically, HCT116 appeared to be more tolerant to CEM207 treatment. […] Based on the cell viability data, chromatin immunoprecipitation-qPCR (ChIP-qPCR) was performed in stably infected HCT116 cells. […] The signal change was measured between samples when only CEM207 or gRNA are present and those where both are present. […] To determine outlier significance, a “z-score” distribution was calculated by taking the scaled means of the x- and y-axis values and calculated P values for each point within this distribution. […]
ChIP-seq library preparation. […] Libraries were sequenced to a depth of 30 million […] (75-bp single-end reads) on an Illumina NextSeq 500.
ChIP-seq analyses. Reads from the sequencer were demultiplexed using bcl2fastq (v2.20.0). Sequencing adapters on reads were trimmed using cutadapt (v1.12) using options -a GATCGGAAGAGC (SEQ ID NO: 35) and—minimum-length 36 in […]. […]

T1 sequence (P62942 2-108 limits assumed, other chains not shown): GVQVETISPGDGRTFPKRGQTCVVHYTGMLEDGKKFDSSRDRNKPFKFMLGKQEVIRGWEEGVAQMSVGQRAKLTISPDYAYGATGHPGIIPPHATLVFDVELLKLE

CC[C@H](C(=O)N1CCCC[C@H]1C(=O)O[C@H](CCc1ccc(OC)c(OC)c1)c1cccc(OCC(=O)NCCOCCOCCNC(=O)C[C@@H]2N=C(c3ccc(Cl)cc3)c3c(sc(C)c3C)-n3c(C)nnc32)c1)c1cc(OC)c(OC)c(OC)c1 [CEM207, (R)-1-(3-((14-((S)-4-(4-Chlorophenyl)-2,3,9-trimethyl-6H-thieno[3,2-f][1,2,4]triazolo[4,3-a][1,4]diazepin-6-yl)-2,13-dioxo-6,9-dioxa-3,12-diazatetradecyl)oxy)phenyl)-3-(3,4-dimethoxyphenyl) propyl(S)-1-((S)-2-(3,4,5-trimethoxyphenyl)butanoyl) piperidine-2-carboxylate]
BRD4 ChIP-seq signal at the CXCR4 locus (25 nM CEM207 + sgCXCR4): well-defined BRD4 signal peak at the CXCR4 locus | BRD4 peaks having a log2 fold-change in signal less than two in either direction (off-target assessment, CEM207 or gRNA only vs both present): 96.8%
